Assays:
168 GPCRs [1] = biological target: T1, 168 GPCRs (Homo sapiens, UniProt O95136); assay: β-arrestin GPCR screen (PathHunter/GPCRmax), agonist mode; format: cell-based; conditions: GPCR EDG5; Agonist mode; 10 uM
T1 construct: host or cells: PathHunter cell lines
Protocol: (§1) For agonist determination, cells were incubated with sample to induce response. […] Vehicle concentration was 1%.

168 GPCRs [2] = biological target: T2, 168 GPCRs (Homo sapiens, UniProt P49682); assay: as above; format: cell-based; conditions: GPCR CXCR3; Agonist mode; 10 uM
T2 construct: host or cells: PathHunter cell lines
Protocol: as §1

168 GPCRs [3] = biological target: T3, 168 GPCRs (Homo sapiens, UniProt P32246); assay: as above; format: cell-based; conditions: CCR1; Agonist; 1 uM
T3 construct: host or cells: PathHunter cell lines
Protocol: as §1

168 GPCRs [4] = biological target: T4, 168 GPCRs (Homo sapiens, UniProt P46092); assay: as above; format: cell-based; conditions: CCR10; Agonist; 10 uM
T4 construct: host or cells: PathHunter cell lines
Protocol: as §1

168 GPCRs [5] = biological target: T5, 168 GPCRs (Homo sapiens, UniProt P25024); assay: as above; format: cell-based; conditions: GPCR CXCR1; Agonist mode; 10 uM
T5 construct: host or cells: PathHunter cell lines
Protocol: as §1

168 GPCRs [6] = biological target: T6, 168 GPCRs (Homo sapiens, UniProt P25021); assay: as above; format: cell-based; conditions: GPCR HRH2; Agonist mode; 10 uM
T6 construct: host or cells: PathHunter cell lines
Protocol: as §1

168 GPCRs [7] = biological target: T7, 168 GPCRs (Homo sapiens, UniProt P30411); assay: as above; format: cell-based; conditions: BDKRB2; Agonist; 10 uM
T7 construct: host or cells: PathHunter cell lines
Protocol: as §1

168 GPCRs [8] = biological target: T8, 168 GPCRs (Homo sapiens, UniProt P51677); assay: as above; format: cell-based; conditions: CCR3; Agonist; 1 uM
T8 construct: host or cells: PathHunter cell lines
Protocol: as §1

168 GPCRs [9] = biological target: T9, 168 GPCRs (Homo sapiens, UniProt P14416); assay: as above; format: cell-based; conditions: GPCR DRD2L; Agonist mode; 10 uM
T9 construct: host or cells: PathHunter cell lines
Protocol: as §1

168 GPCRs [10] = biological target: T10, 168 GPCRs (Homo sapiens, UniProt O43603); assay: as above; format: cell-based; conditions: GALR2; Agonist; 1 uM
T10 construct: host or cells: PathHunter cell lines
Protocol: as §1

168 GPCRs [11] = biological target: T11, 168 GPCRs (Homo sapiens, UniProt P48546); assay: as above; format: cell-based
T11 construct: host or cells: PathHunter cell lines
Protocol: as §1

168 GPCRs [12] = biological target: T12, 168 GPCRs (Homo sapiens, UniProt P23945); assay: as above; format: cell-based; conditions: GPCR FSHR; Agonist mode; 10 uM
T12 construct: host or cells: PathHunter cell lines
Protocol: as §1

168 GPCRs [13] = biological target: T13, 168 GPCRs (Homo sapiens, UniProt Q96P65); assay: as above; format: cell-based; conditions: GPR103; Agonist; 1 uM
T13 construct: host or cells: PathHunter cell lines
Protocol: as §1

[14] = biological target: norepinephrine transporter (NET) (Rattus norvegicus, UniProt Q63380); assay: Competitive radioligand binding, [3H]nisoxetine, rat brain lysates
Protocol: Radioligands used were: [^3H] Citalopram (PerkinElmer NET1039250UC); [^3H] Nisoxetine (PerkinElmer NET1084250UC); [^3H] WIN35428 (PerkinElmer NET1033250UC). […] Rat brains were dissected and tissue was homogenized in cold lysis buffer, centrifged at 100×g for 2 min and the supernatant was placed in a fresh tube. Supernatant was centrifuged at 13,000×g for 10 min at 4° C. to re-pellet the cell lysate. The pellet was resuspended in fresh wash buffer (50 mM Tris-HCl; 5 mM MgCl2; 5 mM EDTA) and centrifuged a third time. The pellet was then resuspended in wash buffer containing 10% sucrose as a cryoprotectant, divided into aliquots (0.3 mL) and stored at −80° C. A sample of the homogenate was analyzed for protein content using the SIGMA® BCA assay. On the day of the assay, the membrane preparation was thawed, and the pellet resuspended in final assay buffer. […] To each well was added 150 μL membranes, 50 μL of non-specific compound or buffer and 50 μL radioligand solution in buffer. […] Ki was subsequently calculated using the Cheng-Prusoff equation.

SERT = SERT (Rattus norvegicus, UniProt P31652); assay: [3H]5HT uptake saturation curves with or without methylone; format: biochemical
Text: If high concentrations of [^3H] […] Three hot saturation curves were run with the [^3H]

SERT, sequence (P31652 whole entry): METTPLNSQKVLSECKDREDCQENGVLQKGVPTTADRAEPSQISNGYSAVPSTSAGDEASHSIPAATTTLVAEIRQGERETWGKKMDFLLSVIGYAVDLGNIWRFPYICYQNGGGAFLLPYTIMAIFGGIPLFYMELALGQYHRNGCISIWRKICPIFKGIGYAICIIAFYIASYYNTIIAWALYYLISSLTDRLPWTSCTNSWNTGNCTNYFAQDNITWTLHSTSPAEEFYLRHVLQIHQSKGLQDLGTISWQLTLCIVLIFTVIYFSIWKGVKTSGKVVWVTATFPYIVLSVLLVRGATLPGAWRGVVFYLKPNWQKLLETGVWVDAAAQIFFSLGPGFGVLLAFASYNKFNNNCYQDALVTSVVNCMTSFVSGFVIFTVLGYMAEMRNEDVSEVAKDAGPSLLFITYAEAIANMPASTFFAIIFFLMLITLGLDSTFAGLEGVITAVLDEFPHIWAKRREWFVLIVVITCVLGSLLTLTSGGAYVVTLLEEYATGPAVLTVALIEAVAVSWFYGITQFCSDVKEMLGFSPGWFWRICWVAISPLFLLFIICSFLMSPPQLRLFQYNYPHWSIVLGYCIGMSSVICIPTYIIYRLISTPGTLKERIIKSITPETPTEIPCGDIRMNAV
T11 sequence (P48546 22-466): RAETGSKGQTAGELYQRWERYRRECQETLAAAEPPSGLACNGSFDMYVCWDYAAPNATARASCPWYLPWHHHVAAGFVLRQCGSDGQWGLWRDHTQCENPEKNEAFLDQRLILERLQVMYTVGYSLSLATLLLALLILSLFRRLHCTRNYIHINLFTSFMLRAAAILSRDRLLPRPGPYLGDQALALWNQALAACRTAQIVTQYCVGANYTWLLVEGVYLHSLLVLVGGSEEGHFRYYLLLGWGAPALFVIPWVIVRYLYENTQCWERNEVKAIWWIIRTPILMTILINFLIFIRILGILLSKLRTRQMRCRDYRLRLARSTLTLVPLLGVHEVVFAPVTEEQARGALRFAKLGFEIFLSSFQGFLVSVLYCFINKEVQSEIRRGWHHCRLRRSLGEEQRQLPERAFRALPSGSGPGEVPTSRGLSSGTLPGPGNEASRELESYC
T12 sequence (P23945 18-695): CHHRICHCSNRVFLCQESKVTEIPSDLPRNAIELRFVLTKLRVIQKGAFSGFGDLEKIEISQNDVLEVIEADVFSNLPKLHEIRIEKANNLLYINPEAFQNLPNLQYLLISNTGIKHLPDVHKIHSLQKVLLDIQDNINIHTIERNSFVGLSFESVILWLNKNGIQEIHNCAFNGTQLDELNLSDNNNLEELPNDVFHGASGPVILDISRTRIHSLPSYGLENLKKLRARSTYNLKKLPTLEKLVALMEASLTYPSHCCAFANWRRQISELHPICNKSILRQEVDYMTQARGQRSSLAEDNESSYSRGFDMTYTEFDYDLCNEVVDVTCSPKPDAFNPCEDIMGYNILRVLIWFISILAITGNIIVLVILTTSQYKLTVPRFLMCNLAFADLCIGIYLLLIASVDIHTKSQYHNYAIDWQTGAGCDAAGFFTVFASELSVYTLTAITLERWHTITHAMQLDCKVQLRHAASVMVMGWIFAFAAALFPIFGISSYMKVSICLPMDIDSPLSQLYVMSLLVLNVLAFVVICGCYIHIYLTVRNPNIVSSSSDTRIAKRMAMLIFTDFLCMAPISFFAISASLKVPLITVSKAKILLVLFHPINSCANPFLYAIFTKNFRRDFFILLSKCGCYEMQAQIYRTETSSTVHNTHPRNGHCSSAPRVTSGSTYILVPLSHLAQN
T7 sequence (P30411 whole entry): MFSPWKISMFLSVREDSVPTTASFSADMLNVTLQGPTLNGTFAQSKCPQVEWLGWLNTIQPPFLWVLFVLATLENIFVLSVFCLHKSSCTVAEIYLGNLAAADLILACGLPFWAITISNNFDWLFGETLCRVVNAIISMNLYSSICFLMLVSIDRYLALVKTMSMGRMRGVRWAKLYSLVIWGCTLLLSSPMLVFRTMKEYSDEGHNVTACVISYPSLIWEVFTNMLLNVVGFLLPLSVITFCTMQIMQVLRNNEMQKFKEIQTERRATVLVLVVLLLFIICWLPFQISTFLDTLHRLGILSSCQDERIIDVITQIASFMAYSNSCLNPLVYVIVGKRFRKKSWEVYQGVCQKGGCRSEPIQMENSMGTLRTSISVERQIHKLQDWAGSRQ
T10 sequence (O43603 whole entry): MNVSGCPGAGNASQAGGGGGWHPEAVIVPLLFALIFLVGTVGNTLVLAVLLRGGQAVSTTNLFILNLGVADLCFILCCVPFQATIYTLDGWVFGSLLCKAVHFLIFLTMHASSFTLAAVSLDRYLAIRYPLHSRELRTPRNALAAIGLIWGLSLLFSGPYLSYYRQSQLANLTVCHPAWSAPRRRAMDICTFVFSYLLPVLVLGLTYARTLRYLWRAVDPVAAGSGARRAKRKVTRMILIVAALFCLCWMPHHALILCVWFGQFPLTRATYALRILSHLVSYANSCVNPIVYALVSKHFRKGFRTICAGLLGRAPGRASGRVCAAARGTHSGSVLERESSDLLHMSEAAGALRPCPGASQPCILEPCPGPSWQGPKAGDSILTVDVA
T4 sequence (P46092 whole entry): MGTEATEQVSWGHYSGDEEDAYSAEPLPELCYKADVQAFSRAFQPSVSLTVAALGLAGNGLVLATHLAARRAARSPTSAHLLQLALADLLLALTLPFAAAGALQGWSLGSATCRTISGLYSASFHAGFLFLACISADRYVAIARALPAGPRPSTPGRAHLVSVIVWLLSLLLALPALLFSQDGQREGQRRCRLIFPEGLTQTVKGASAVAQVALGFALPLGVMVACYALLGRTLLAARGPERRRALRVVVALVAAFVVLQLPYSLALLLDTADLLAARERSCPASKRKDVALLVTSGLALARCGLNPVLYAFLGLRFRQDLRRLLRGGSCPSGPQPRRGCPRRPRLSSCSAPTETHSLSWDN
T2 sequence (P49682 whole entry): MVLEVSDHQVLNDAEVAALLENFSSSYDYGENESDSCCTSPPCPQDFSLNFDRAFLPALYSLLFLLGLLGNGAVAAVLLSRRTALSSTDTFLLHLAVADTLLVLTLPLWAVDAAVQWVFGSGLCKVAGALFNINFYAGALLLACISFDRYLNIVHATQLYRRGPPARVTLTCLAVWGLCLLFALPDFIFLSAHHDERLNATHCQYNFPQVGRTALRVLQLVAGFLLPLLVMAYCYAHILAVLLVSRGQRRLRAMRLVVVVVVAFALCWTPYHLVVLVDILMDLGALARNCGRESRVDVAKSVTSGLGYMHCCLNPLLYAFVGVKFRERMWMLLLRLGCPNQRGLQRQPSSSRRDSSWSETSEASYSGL
T3 sequence (P32246 whole entry): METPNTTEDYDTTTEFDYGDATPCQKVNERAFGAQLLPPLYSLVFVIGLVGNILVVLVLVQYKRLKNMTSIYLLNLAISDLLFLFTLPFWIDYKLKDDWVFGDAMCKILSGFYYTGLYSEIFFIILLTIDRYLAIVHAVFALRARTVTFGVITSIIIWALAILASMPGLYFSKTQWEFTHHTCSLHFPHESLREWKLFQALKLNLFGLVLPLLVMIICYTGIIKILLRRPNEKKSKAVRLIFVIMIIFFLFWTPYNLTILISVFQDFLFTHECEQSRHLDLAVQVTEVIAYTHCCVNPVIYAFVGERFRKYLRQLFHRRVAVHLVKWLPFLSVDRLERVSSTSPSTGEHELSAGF
T5 sequence (P25024 whole entry): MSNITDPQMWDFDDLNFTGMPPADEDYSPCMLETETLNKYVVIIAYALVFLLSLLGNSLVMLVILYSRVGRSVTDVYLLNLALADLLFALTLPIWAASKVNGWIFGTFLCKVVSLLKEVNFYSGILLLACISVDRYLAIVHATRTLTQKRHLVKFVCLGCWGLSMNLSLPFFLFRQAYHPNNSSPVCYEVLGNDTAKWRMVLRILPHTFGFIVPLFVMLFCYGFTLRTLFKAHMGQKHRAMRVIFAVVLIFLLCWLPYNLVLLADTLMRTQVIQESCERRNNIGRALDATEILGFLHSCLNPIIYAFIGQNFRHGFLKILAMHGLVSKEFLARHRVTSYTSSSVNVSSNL
norepinephrine transporter (NET), sequence (Q63380 1-617): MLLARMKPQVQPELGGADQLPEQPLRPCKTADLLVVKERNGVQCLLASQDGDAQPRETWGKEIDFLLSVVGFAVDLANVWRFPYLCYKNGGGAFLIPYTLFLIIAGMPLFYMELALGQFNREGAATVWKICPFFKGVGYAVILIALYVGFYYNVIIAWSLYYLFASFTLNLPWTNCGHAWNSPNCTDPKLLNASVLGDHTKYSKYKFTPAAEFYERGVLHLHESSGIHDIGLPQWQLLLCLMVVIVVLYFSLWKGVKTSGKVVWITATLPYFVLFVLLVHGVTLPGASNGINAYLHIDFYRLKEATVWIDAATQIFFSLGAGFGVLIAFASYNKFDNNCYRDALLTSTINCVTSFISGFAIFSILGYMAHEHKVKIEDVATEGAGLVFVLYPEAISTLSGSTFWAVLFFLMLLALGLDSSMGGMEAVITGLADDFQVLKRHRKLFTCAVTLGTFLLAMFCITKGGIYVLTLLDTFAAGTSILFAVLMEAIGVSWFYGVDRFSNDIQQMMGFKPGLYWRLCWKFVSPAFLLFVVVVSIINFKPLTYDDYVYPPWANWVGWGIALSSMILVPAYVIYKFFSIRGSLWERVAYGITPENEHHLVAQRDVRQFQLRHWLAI
T1 sequence (O95136 whole entry): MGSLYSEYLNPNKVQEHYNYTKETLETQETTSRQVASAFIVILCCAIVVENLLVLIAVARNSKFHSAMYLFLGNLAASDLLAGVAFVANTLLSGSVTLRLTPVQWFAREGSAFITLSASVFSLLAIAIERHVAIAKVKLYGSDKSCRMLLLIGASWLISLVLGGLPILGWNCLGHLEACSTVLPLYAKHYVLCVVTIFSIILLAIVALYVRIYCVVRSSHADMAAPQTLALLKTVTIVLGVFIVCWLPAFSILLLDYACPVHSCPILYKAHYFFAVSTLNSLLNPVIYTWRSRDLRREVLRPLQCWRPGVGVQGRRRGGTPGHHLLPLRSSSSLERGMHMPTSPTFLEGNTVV

CNC(C)C(=O)c1ccc2c(c1)OCO2 (centres unmarked) [methylone, 3,4-methylenedioxy-N-methylcathinone]
activity at 10 µM (168 GPCRs [1]): -3.7%
activity at 10 µM (168 GPCRs [2]): ~1%
activity at 1 µM (168 GPCRs [3]): ~-2%
activity at 10 µM (168 GPCRs [4]): ~-1%
activity at 10 µM (168 GPCRs [5]): -0.1%
activity at 10 µM (168 GPCRs [6]): -2.8%
activity at 10 µM (168 GPCRs [7]): -2.9%
activity at 1 µM (168 GPCRs [8]): -0.7%
activity at 10 µM (168 GPCRs [9]): -0.7%
activity at 1 µM (168 GPCRs [10]): -3.4%
activity at 1 µM (168 GPCRs [11]; GIPR, Agonist, 1 uM): ~-2%
activity at 10 µM (168 GPCRs [11]; GPCR GIPR, Agonist mode, 10 uM): ~-5%
activity at 10 µM (168 GPCRs [12]): -2.2%
activity at 1 µM (168 GPCRs [13]): ~0%
Ki [14]: 1.15 µM
effect on Bmax of [3H]5HT uptake (SERT): no decrease in Bmax
type of interaction at the SERT (SERT; two concentrations of methylone): competitive

From patent US20250332139A1, “PS[…] AND THEIR USE FOR TREATING […] AND NE[…] DISORDERS” (Transcend Therapeutics, Inc., priority 2021, published 2025)
